Laboratory results as given in patent publication US6713057B1, “Compositions and methods for modulating serum cholesterol” (The Johns Hopkins University, priority 1999, dated 2004).

Legend:
SREBP-1 [1] = experiment: SREBP-1 proteolysis (maturation) assay, Western immunoblot of nuclear fractions, HH-25 hepatocytes; assay type: cell-based, human; details: for increase in mass of the mature form of SREBP-1: sterol supplemented media
Experimental: FIGS. 2A-2C illustrate effects of TNF-α sphingomyelinase and C2-ceramide on the kinetics of SREBP-1 maturation—FIGS. 2A-2C is explained in more detail as follows: Cells were maintained in media supplemented with 1 μg/ml 25-hydroxy cholesterol and 15 μg/ml cholesterol for 24 hours before the experiment. The cells were treated for the indicated time as described in materials and methods. The cells were then harvested in PBS, pelleted and frozen. Lysis and nuclear fractionation were performed as described. Nuclear fractions (50 μg of protein) were electrophoresed on a 7.5% polyacrylamide gel and transferred to a PVDF membrane. Western blotting was performed as described. Band intensity was quantified via densitometry. Error bars represent ±one standard deviation from the mean. 2A) The kinetics of SREBP maturation as measured by the increase in mature SREBP-1 are plotted. Fold increase was calculated by comparing each time point to the corresponding control value (TNF-α is represented by stippled bars, bacterial sphingomyelinase is represented by light gray bars and C2-ceramide by the dark bars.) 2B) Cells were treated with TNF-α (10 ng/ml) and prepared as described above. The bands corresponding to the precursor and mature forms of SREBP-1 were quantified and their ratio plotted. 2C) Representative Western blots from which numerical data was derived. Incubation time is indicated above and applies to all conditions. The membranes were exposed to film for 15 seconds. P and M denote the precursor and mature forms of SREBP-1 respectively.
FIGS. 3A-3C show effects of TNF-α, sphingomyelinase and C2-ceramide concentration on SREBP-1 maturation—The FIGS. 3A-3C are explained in more detail as follows. […] Nuclear pellets were prepared and electrophoresed (50 μg of protein). The bands corresponding to the precursor and mature forms of SREBP-1 were quantified. The precursor to mature ratios were normalized to a single control to facilitate comparison. The control ratio was arbitrarily assigned a value of 1. A Unit of sphingomyelinase activity hydrolyzes 1.0 μmol of sphingomyelin per minute at 37° C. FIG. 3A (ng/ml TNF-α); FIG. 3B (mUnits of sphingomyelinase); FIG. 3C (micromolar C2-ceramide).
HH-25 cells were grown in alpha-minimal essential media supplemented with 100 units/ml penicillin, 100 µg/ml streptomycin, […], 0.1 μM selenium, 5.5 μg/ml transferrin, 0.5 μg/ml linoleic acid and 10% fetal bovine serum (media A). The cells were incubated in serum free F10 media for 30 to 60 minutes prior to initiating treatment with TNF-α, C2-ceramide or sphingomyelinase.
Following treatment, the cells were washed with 5 ml of PBS and pelleted at 1500×g for 10 minutes at 4° C. The pellet was stored at −70° C. and lysed in 0.5 ml buffer A (10 mM HEPES pH 7.4, 5 mM EDTA, 0.25 mM EGTA, 50 mM NaF, 7 mM β-mercaptoethanol, 0.35M sucrose, 0.1% NP-40 and protease inhibitors 1 mM PMSF, 2 μg/ml aprotinin, 10 μg/ml leupeptin and 5 μg/ml pepstatin). The lysate was centrifuged at 12,000×g for 15 minutes at 4° C. to prepare a nuclear fraction. The protein concentration of these samples was determined by the method of Lowry et al. al. (19).
50 μg of nuclear protein was separated by gel electrophoresis on a 7.5% polyacrylamide gel. Gels were calibrated by high range molecular weight markers (Bio-Rad product #161-0303, New York, N.Y.) which were transferred to a polyvinyl difluoride (PVDF) membrane and visualized with coomassie staining. Rabbit polyclonal antibodies against SREBP-1 were used at 0.5 μg/ml according to the instructions of the manufacturer. The antibody was visualized with horseradish peroxidase conjugated anti-rabbit IgG made in donkey (Amersham) using the Enhanced Chemiluminescence (ECL) Western Blotting Detection System Kit (Amersham). PVDF membranes were exposed to Hyperfilm ECL (Amersham) for the indicated time. Immunoblots were quantified via densitometry performed on a PDI densitometer scanner (model 20J7) coupled to a SPARC IRC workstation.

SREBP-1 [2] = experiment: Electrophoretic mobility shift assay, SREBP-1 binding to SRE probe; assay type: cell-based, human; details: for amount of probe bound (electrophoretically retarded) by mature SREBP-1: TNF-α 10 ng/ml, sphingomyelinase 100 mUnits, C2-ceramide 10 μM
Experimental: FIGS. 6A-6D show electrophoretic mobility shift assays. FIGS. 6A-D are explained in more detail as follows. Cells were maintained in sterol supplemented media. Nuclear pellets were prepared and assayed as described in materials and methods. Probe that has been bound by mature SREBP-1 is indicated as “Bound”. Unbound probe is indicated as “Free”. The kinetics (in minutes) of SREBP-1 binding to the probe in response to treatment with (FIG. 6A). TNF-α (10 ng/ml), (FIG. 6B) sphingomyelinase (100 mUnits) and (FIG. 6C) C2-ceramide ([…]). (FIG. 6D). The cells were treated with either TNF-α (10 ng/ml), sphingomyelinase (100 mUnits) or C2-ceramide (10 μM) for 15 minutes. Supershift assays were then performed with antibodies raised against the DNA binding domain of SREBP-1. The presence or absence of antibody is indicated by (+) and (−) respectively. Pre-immune IgG was used as a control.
Gel mobility shift assays were performed as follows. Each 20 μl reaction mixture contained 8-10 μg of nuclear protein plus a α-[^32P]-labeled 25-base pair oligonucleotide probe containing the SREBP-binding site (14) in binding buffer (10 mM Hepes, pH 7.5, 0.5 mM spermidine, 0.15 mM EDTA, 10 mM dithiothreitol, 0.35 mM sucrose). The reaction mixture was incubated at room temperature for 15 min and loaded directly onto a 6.5% polyacrylamide (49:0.6 acrylamide/bisacrylamide) gel in a buffer of 25 mM Tris borate (pH 8.0), 0.25 mM EDTA. In some experiments, antisera specific for SREBP or preimmune sera were added to reaction mixtures to determine the composition of protein-probe complexes. For these “supershift” assays, extracts were incubated with 1 μl of preimmune sera or an equal volume of anti-SREBP antisera at 4° C. for 30 min prior to addition of α-[^32P]-labeled probe. In all experiments, proteins were separated by electrophoresis at 200 V for 2 h at room temperature. Gels were dried and exposed to Kodak XAR film with intensifying screens. Assays were repeated with nuclear extracts obtained from three unique experiments and evaluated by phosphoimage analysis to ensure reproducibility of results.

HH-25 cells = experiment: DNA laddering assay (apoptosis) in hepatocytes; details: 1 hour treatment, concentrations as in maturation studies, refed 6 hours
Experimental: Cells were treated with either TNF-α, sphingomyelinase or C2-ceramide for 1 hour at concentrations identical to those used in the SREBP-1 maturation studies. The cells were then washed twice with minimal essential medium and refed with media A for 6 hours. […] Genomic DNA was electrophoresed and stained with ethidium bromide.

| Compound | Emax (SREBP-1 [1]; Homo sapiens, Hepatocyte, 1 μM of C2-ceramide, read-out: percent of maximal effect on SREBP-1 maturation) [%] | persistence of the increase in mature SREBP-1 (SREBP-1 [1]; after 60 minutes) | rate of accumulation of active, nuclear SREBP-1 compared with TNF-α or sphingomyelinase (SREBP-1 [2]) | amount of probe bound (electrophoretically retarded) by mature SREBP-1 (SREBP-1 [2]) | induction of apoptosis (160 bp DNA ladder) (HH-25 cells) | concentration giving maximal effect on SREBP-1 maturation (SREBP-1 [1]) [ng/mL] | dependence of extent of SREBP-1 maturation on concentration (SREBP-1 [1]) | maximal decrease in the precursor to mature SREBP-1 ratio (SREBP-1 [1]; 45 minutes after TNF-α (10 ng/ml) was added) [fold] | increase in mass of the mature form of SREBP-1 (SREBP-1 [1]; after 5 minutes of incubation) [fold] | increase in mass of the mature form of SREBP-1 (SREBP-1 [1]; after 15 minutes of treatment) [fold] |
| --- | --- | --- | --- | --- | --- | --- | --- | --- | --- | --- |
| CCCCCCCCCCCCC/C=C/[C@@H](O)[C@H](CO)NC(C)=O [C2-ceramide, N-acetylsphingosine, reference compound] | 81 | persistent elevation | more rapid accumulation | increases | did not induce apoptosis | – | – | – | – | – |
| TNF-α | – | – | – | increases with time | did not induce apoptosis | 10 | did not vary appreciably with concentration | 1.5 | 2 | 3 |
